Tested on: human ILC2s
Assay: In vitro culture of human ILC2s, IL-5 and IL-13 production
Type: cell-based
Settings: agonist 10 μg mL−1; rh-IL-2, rh-IL-7, rh-IL-33; 24h
Protocol: FIGS. 7A-7E: α7nAChR agonist prevents human ILC2s mediated AHR and allergic. (FIG. 7A) Human ILC2s were purified from PBMCs via FACS and cultured (10^4 cells per mL) in the presence of recombinant human IL-33 (20 ng mL^−1), IL-2 (10 ng mL^−1), and IL-7 (20 ng mL^−1), with or without α7nAChR agonist for 24h. In the right panel, data are presented as means of four individual donors. (FIG. 7B) Human peripheral-blood mononuclear cells were isolated via FACS and cultured in the presence or absence of rh-IL-2 (10 ng mL^−1) and rh-IL-7 (20 ng mL^−1) for 48 hours, then adoptively transferred into Rag2^−/− GC^−/− mice that were intranasally challenged with rm-IL-33 or PBS, with or without α7nAChR agonist (125 μg) on days 1-3. […]
For human peripheral ILC2s, peripheral blood mononuclear cells (PBMCs) were first isolated from human fresh blood by diluting the blood 1:1 in PBS, adding to SepMate™-50 separation tubes (STEMCELL Technologies Inc, Vancouver, Canada) prefilled with 15-mL Lymphoprep™ each (Axis-Shield, Oslo, Norway), and centrifuging at 1200 g for 15 minutes. […] On day 4, lung function was measured and BAL was performed and analyzed.
Murine ILC2s were isolated from BALB/cByJ mice to >95% purity using the FACSARIA III cell sorter. […] Levels of cytokines were measured by ELISA (eBioscience), according to the manufacturer's instructions.

In the case of `COc1ccc(/C=C2\CCCN=C2c2cccnc2)c(OC)c1` [GTS-21, 3-[(3E)-3-[(2,4-dimethoxyphenyl)methylidene]-5,6-dihydro-4H-pyridin-2-yl]pyridine], the “IL-5 production by human ILC2s” value is reported as “decreasing” and the “IL-13 production by human ILC2s” value is reported as “decreasing”.

— patent publication US20190247376A1, “NICOTINIC ACETYLCHOLINE RECEPTOR AGONIST ATTENUATES ILC2-DEPENDENT AIRWAY HYPERREACTIVITY” (University of Southern California, priority 2016, published 2019)
